Laboratory results as given in US20260069657A1, “Haptoglobulin for Use in Treating or Preventing Exaggerated Erectile Response or Erectile Dysfunction” (CSL Behring AG, priority 2022, published 2026).

Tests used:
Type in all cases: in vivo, mouse
cGMP = assay: Determination of basal cGMP levels in penis (enzyme immunoassay); details: SCD mice, haptoglobin treatment, vs SCD-vehicle, P<0.05
Procedure: (§1) All mice strains were originally purchased from Jackson Laboratories (Bar Harbor, ME). Characterization and breeding were performed at the Multidisciplinary Center for the Investigation of Biological Science in Laboratory Animals of University of Campinas. C57BL/6 male mice (wild-type, WT) and Berkeley transgenic SCD mice, aged 3 to 4 months-old, were used. Mice were housed three per cage on a 12 h light-dark cycle. SCD male mice were treated with treatment with haptoglobin (400 mg/kg, subcutaneous) or vehicle of Monday, Wednesday and Friday for a period of 1 month (24).
Quantitative assays for cGMP were performed using a commercial enzyme immunoassay kit (Cayman Chemical Cyclic GMP EIA kit, Ann Arbor, MI, USA). For penile cGMP content, frozen penile tissue was homogenized in 5% trichloroacetic acid and centrifuged. TCA was extracted from the supernatant with three washes of water-saturated ether. cGMP was expressed as pmol/mg tissue.

[1] = tested on: corpus cavernosum strips from SCD mice; assay: Concentration-response contraction curves to phenylephrine and KCl in cavernosal strips; details: SCD mice treated with haptoglobin 400 mg/kg s.c. 1 month, mean ± SEM
Procedure: as §1
Strips of mouse corpus cavernosum were mounted in a 7-ml organ system containing Krebs solution at 37° C., continuously bubbled with a mixture of 95% O2 and 5% CO2 (pH 7.4), and suspended between two metal hooks. One hook was connected to a force transducer and the other acted as a fixed attachment point. Tissues were allowed to equilibrate for 60 min under a resting tension of 2.5 mN. Isometric force was recorded using a PowerLab 400™ data acquisition system (Software LabChart, version 7.0, AD Instrument, MA, USA). Cumulative concentration-response curves were constructed for the muscarinic agonist acetylcholine (ACh; 10^−9 to 10^−5 M) and sodium nitroprusside (SNP; 10^−8 to 10^−4 M) in cavernosal strips pre-contracted with phenylephrine (10^−5 M). […]

[2] = tested on: corpus cavernosum strips from SCD mice; assay: Electrical-field stimulation (EFS)-induced nitrergic relaxations of cavernosal strips; details: 2-32 Hz, guanethidine and atropine pretreated strips, haptoglobin 400 mg/kg s.c. 1 month
Procedure: as §1
EFS was applied on cavernosal strips placed between two platinum ring electrodes connected to a Grass S88 stimulator (Astro-Med Industrial Park, RI, USA). EFS was conducted at 50 V, 1 ms pulse width and trains of stimuli lasting 10 sec at varying frequencies. In order to study the nitrergic cavernosal relaxations, tissues were pretreated with guanethidine (3×10^−5 M; to deplete the catecholamine stores of adrenergic fibers) and atropine (10^−6 M; to produce muscarinic antagonism) for 30 minutes prior to pre-contraction with phenylephrine (10^−5 M). When a stable contraction level was attained, a series of EFS-induced relaxations were constructed (2-32 Hz).

3-nitrotyrosine = assay: Western blot of penis homogenates, 3-nitrotyrosine; details: SCD mice, haptoglobin 400 mg/kg s.c. 1 month, vs SCD-vehicle
Procedure: as §1
(§2) Corpus cavernosum tissue was homogenized in lysis buffer and centrifuged at 12,000 g for 20 minutes at 4° C. Homogenates containing […] total proteins were run on 4-20% Tris-HCl gels (Bio-Rad Laboratories, Hercules, CA, USA) and transferred to a nitrocellulose membrane. Nonfat dry milk 5% (Bio-Rad) in Tris-buffered saline/Tween was used for 1 hour at 24° C. to block nonspecific binding sites. […] Densitometry was analyzed using the Image J Software (National Institute of Health, Bethesda-MD, USA). Quantified densitometry results were normalized to β-actin. Quantified densitometry results of eNOS phosphorylated at Ser1177 were normalized to total eNOS.

eNOS = assay: Western blot of penis homogenates, eNOS; details: SCD mice, haptoglobin 400 mg/kg s.c. 1 month; normalized to β-actin; P<0.05
Procedure: as §1, §2

ROCK1 = assay: Western blot of penis homogenates, ROCK1; details: SCD mice, haptoglobin 400 mg/kg s.c. 1 month; compared to WT-vehicle
Procedure: as §1, §2

[3] = tested on: corpus cavernosum strips from SCD mice; assay: Concentration-response relaxation curves to ACh and SNP in cavernosal strips pre-contracted with phenylephrine
Procedure: as §1
Strips of mouse corpus cavernosum were mounted in a 7-ml organ system containing Krebs solution at 37° C., continuously bubbled with a mixture of 95% O2 and 5% CO2 (pH 7.4), and suspended between two metal hooks. One hook was connected to a force transducer and the other acted as a fixed attachment point. Tissues were allowed to equilibrate for 60 min under a resting tension of 2.5 mN. Isometric force was recorded using a PowerLab 400™ data acquisition system (Software LabChart, version 7.0, AD Instrument, MA, USA). Cumulative concentration-response curves were constructed for the muscarinic agonist acetylcholine (ACh; 10^−9 to 10^−5 M) and sodium nitroprusside (SNP; 10^−8 to 10^−4 M) in cavernosal strips pre-contracted with phenylephrine (10^−5 M). Cumulative concentration-response curves to the contractile agent phenylephrine (α1-adrenergic receptor agonist, 10^−8 to 3×10^−4 M) and KCl (3×10^−4 to 3×10^−1 M) were obtained in cavernosal strips. Nonlinear regression analysis to determine the pEC50 was carried out using GraphPad Prism (GraphPad Software, San Diego, CA, USA).

PDE5 = assay: Western blot of penis homogenates, PDE5; details: SCD mice, haptoglobin 400 mg/kg s.c. 1 month, vs SCD-vehicle
Procedure: as §1, §2

p-eNOS (Ser-1177) = assay: Western blot of penis homogenates, p-eNOS (Ser-1177); details: SCD mice, haptoglobin 400 mg/kg s.c. 1 month; normalized to eNOS; P<0.05
Procedure: as §1, §2

nNOS = assay: Western blot of penis homogenates, nNOS; details: SCD mice, haptoglobin 400 mg/kg s.c. 1 month; normalized to β-actin
Procedure: as §1, §2

[4] = tested on: NADPH oxidase subunit gp91phox; assay: Western blot of penis homogenates, gp91phox; details: SCD mice, haptoglobin 400 mg/kg s.c. 1 month; normalized to β-actin
Procedure: as §1, §2

ROCK2 = assay: Western blot of penis homogenates, ROCK2; details: SCD mice, haptoglobin 400 mg/kg s.c. 1 month; normalized to β-actin
Procedure: as §1, §2

4-HNE = assay: Western blot of penis homogenates, 4-HNE; details: SCD mice, haptoglobin 400 mg/kg s.c. 1 month, vs SCD-vehicle
Procedure: as §1, §2

Increase of basal cGMP levels in penis (cGMP): approximately 72%
Effect of treatment on raised SNP pEC50 value ([3]; SCD mice, haptoglobin 400 mg/kg s.c., P<0.05): reversed
Effect on potency (pEC50) for ACh among the groups ([3]; WT-vehicle, SCD-vehicle, SCD-haptoglobin): No significant differences
pEC50 of ACh relaxation curve, SCD-Haptoglobin ([3]; agonist ACh, cavernosal strips from SCD mice treated with haptoglobin 400 mg/kg s.c. Mon/Wed/Fri for 1 month, mean ± SEM): 7.12
pEC50 of SNP relaxation curve, SCD-Haptoglobin ([3]; agonist SNP, cavernosal strips from SCD mice treated with haptoglobin 400 mg/kg s.c. Mon/Wed/Fri for 1 month, mean ± SEM): 6.08
Substance: Haptoglobin: Human haptoglobin (Hp) solution, a kind gift from CSL Behring; plasma glycoprotein that binds free hemoglobin
Emax of KCl-induced contraction ([1]; KCl, receptor-independent): 0.30±0.07 mN
Emax of phenylephrine-induced contraction ([1]; phenylephrine 10^-8 to 3x10^-4 M): 0.79±0.11 mN
Effect of treatment on EFS-induced relaxant responses [2]: reduced
Reduction of protein level of 3-nitrotyrosine in penile tissue (3-nitrotyrosine): approximately 27%
Protein level of eNOS in penis (eNOS): normalized
Protein expression of ROCK1 in penis (ROCK1): not modified
Effect of treatment on Emax produced by SNP ([3]; SCD mice, haptoglobin 400 mg/kg s.c., vs SCD-vehicle): reduced
Effect of treatment on Emax values of ACh ([3]; SCD mice, haptoglobin 400 mg/kg s.c., vs SCD-vehicle, P<0.05): reduced
Emax (%) of ACh relaxation curve, SCD-Haptoglobin ([3]; agonist ACh, relative to phenylephrine (10^-5 M) contraction = 100%, SCD mice, haptoglobin 400 mg/kg s.c. 3x/week, 1 month, mean ± SEM): 42 ± 6 %
Emax (%) of SNP relaxation curve, SCD-Haptoglobin ([3]; agonist SNP, relative to phenylephrine (10^-5 M) contraction = 100%, SCD mice, haptoglobin 400 mg/kg s.c. 3x/week, 1 month, mean ± SEM): 78 ± 4%
Increase of protein level of PDE5 in penis (PDE5): approximately 52%
Protein level of p-eNOS (Ser-1177) in penis (p-eNOS (Ser-1177)): normalized
Protein expression of nNOS in penis (nNOS): not modified
Protein levels of gp91phox in penis [4]: fully restored
Protein levels of ROCK2 in penis (ROCK2): fully restored
Reduction of protein level of 4-HNE in penile tissue (4-HNE): ~28%
